For experiment [1], the system named is HBV precore mutant (G1896A). Briefly: Antiviral testing: HBV replicative intermediates by Southern blot in Huh7 cells transfected with HBV plasmid (precore mutant). In kind it is cell-based. Particulars: Hepatitis B virus, Huh-7. From the text: (§1) The plasmid containing 1.3×HBV genome in the vector pBlueBac4.5 was used as the infectious HBV clone. This clone already had the precore mutation at G1896A. The point mutation were created by site directed mutagenesis using the commercial kits according to the manufacturers specifications (QuikChange, Stratagene). A HBV recombinant encoding the reverse transcriptase mutations rtS85A was created. The nucleotide sequence of the plasmid and the point mutations generated by site directed mutagenesis were confirmed by sequencing using the ABI Prism Big Dye Terminator Cycle Sequencing Ready Reaction Kit according to the manufacturer's specifications (Perkin Elmer, Cetus Norwalk, Conn.).
(§2) Huh7 cells were seeded at approximately 20-40% confluency and then were grown for 16-24 hours before transfection. Plasmid DNA containing HBV encoding specific mutations was transfected using Fugene according to the manufacturers protocols.
ADV and LMV were resuspended in sterile water, aliquoted, and frozen at −20° C. to avoid repeated freezing and thawing of the drug. […]
HBV core particles were isolated from the cytoplasmic fraction of Huh7 cells lysis buffer which includes 0.5% w/v NP-40. […] After southern blot analysis a BioRad Phosphoimager and the Quantity One Analysis software (BioRad, Hecules Calif.) was used to analyze suitable exposures of Southern blots. […]

Experiment [2] deals with recombinant HBV encoding the mutant rtS85A. Nature of the experiment: Antiviral testing: HBV replicative intermediates by Southern blot in Huh7 cells transfected with HBV plasmid encoding rtS85A. In kind it is cell-based, hepatitis B virus. Particulars: for IC50: Hepatitis B virus, Huh-7.
Text: as §1, §2
ADV and LMV were resuspended in sterile water, aliquoted, and frozen at −20° C. to avoid repeated freezing and thawing of the drug. Medium containing ADV or LMV were prepared daily as needed. In experiments in which ADV or LMV treatment was initiated […] transfection, Huh7 cells were exposed to the indicated concentration of ADV or LMV immediately after transfection with the HBV plasmid.
HBV core particles were isolated from the cytoplasmic fraction of Huh7 cells lysis buffer which includes 0.5% w/v NP-40. Cytoplasmic extracts were treated with DNAse, adjusted to 10 mmol/l […] and unprotected DNA was removed by an incubation to 500 µg/ml Proteinase K for 1.5 hours at 37° C. HBV DNA in the samples were then extracted using commercial DNA extraction kits such as Qiagen (DNA extraction) or in-house methods using sequential phenol and chloroform extractions, and the nucleic acids were recovered by ethanol precipitation. […] After southern blot analysis a BioRad Phosphoimager and the Quantity One Analysis software (BioRad, Hecules Calif.) was used to analyze suitable exposures of Southern blots. […]

In the case of `Nc1ncnc2c1ncn2CCOCP(=O)(O)O` [ADV, adefovir], the IC50 (usually the point on the concentration scale where inhibition reaches its midpoint) is 430 nM in experiment [1] and 5000 to 10000 nM in experiment [2]. Besides, the “sensitivity of recombinant HBV to drug” value in experiment [2] (recombinant HBV encoding the mutant rtS85A) is “reduced sensitivity”.
For the compound `Nc1ccn([C@@H]2CS[C@H](CO)O2)c(=O)n1` [LMV, (−)-β-2′-deoxy-3′-thiacytidine], the IC50 in experiment [1] amounted to 5 nM; in experiment [2], 10 nM.

These data come from US20060190186A1, “Viral polymerase and modulation thereof” (Melbourne Health, priority 2003, published 2006).
